The numbers were not newly measured in patent publication EP1939174A1, “Inclusion complex of ezetimibe and a cyclodextrin and processes in the preparation thereof” (LEK Pharmaceuticals d.d., priority 2006, dated 2008), which cites them from elsewhere.

Molecules are shown by their SMILES.

Turning to `O=C1[C@H](CC[C@H](O)c2ccc(F)cc2)[C@@H](c2ccc(O)cc2)N1c1ccc(F)cc1` [Ezetimibe, 1-4(fluorophenyl)-3-(R)-[3-(4-fluorophenyl)-3-(S)-hydroxypropyl]-4-(S)-(4-hydroxyphenyl)-2-azetidinone], the “solubility in alcohols and acetone” value (in alcohols and acetone) is recorded as “freely soluble”. The solubility in water entry (in water) is “practically insoluble”.
